Columns and labels:
[1] = target: Delta-type opioid receptor (Homo sapiens, UniProt P41143)
[2] = target: D(3) dopamine receptor (Homo sapiens, UniProt P35462)
[3] = target: T1, Neuropeptide Y receptor type 1 (Homo sapiens, UniProt P25929)
T1 sequence (P25929 whole entry): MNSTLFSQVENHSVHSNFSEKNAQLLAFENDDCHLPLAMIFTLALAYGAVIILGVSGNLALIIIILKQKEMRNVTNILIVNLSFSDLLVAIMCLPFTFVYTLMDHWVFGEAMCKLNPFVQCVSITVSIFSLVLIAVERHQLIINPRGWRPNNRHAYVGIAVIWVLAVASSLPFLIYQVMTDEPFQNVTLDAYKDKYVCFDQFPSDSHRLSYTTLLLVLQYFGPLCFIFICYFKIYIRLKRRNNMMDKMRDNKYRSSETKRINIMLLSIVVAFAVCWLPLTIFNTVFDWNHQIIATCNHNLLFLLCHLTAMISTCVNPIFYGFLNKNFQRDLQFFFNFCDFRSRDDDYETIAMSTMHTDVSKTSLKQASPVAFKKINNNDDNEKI

[4] = target: T2, Alpha-2C adrenergic receptor (Homo sapiens, UniProt P18825); type: functional
T2 sequence (P18825 whole entry): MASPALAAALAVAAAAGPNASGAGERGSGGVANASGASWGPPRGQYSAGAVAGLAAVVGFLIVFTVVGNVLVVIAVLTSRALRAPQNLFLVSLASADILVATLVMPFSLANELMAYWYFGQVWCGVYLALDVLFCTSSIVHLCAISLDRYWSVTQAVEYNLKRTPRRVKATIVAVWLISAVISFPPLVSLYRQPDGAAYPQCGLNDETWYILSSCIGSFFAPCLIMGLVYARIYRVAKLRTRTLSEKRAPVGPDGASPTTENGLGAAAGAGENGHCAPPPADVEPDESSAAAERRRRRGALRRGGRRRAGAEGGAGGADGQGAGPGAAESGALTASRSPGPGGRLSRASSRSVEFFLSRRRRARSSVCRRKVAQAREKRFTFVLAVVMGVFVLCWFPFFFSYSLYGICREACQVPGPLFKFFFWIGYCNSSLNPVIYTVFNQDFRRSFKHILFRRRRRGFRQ

[5] = target: T3, Alpha-1A adrenergic receptor (Homo sapiens, UniProt P35348); type: functional, cell-based
T3 sequence (P35348 whole entry): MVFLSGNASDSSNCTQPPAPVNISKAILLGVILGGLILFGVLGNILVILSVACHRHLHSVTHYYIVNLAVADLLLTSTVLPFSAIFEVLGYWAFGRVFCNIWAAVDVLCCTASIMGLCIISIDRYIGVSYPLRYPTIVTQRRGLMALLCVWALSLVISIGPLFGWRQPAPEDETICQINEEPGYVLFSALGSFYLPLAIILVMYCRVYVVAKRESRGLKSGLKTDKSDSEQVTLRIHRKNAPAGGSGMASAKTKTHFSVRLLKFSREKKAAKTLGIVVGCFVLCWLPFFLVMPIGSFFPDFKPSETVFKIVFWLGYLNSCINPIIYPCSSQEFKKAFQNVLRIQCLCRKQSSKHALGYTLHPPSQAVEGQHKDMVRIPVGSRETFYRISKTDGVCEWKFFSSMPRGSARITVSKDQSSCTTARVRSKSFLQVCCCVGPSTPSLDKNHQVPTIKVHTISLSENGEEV

[6] = target: Mu-type opioid receptor (Homo sapiens, UniProt P35372)
Chain of Mu-type opioid receptor (P35372 whole entry): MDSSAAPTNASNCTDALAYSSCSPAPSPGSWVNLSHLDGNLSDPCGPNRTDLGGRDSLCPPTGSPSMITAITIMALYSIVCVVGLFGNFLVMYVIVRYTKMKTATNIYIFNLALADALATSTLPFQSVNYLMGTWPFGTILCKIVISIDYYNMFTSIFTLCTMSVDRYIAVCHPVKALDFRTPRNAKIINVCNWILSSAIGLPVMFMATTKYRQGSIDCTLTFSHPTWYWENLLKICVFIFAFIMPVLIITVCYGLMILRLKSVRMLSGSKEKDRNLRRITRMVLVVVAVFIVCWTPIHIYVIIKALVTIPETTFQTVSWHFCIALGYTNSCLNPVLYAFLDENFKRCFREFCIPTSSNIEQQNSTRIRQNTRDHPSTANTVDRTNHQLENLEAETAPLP

[7] = target: T4, Amine oxidase [flavin-containing] A (Homo sapiens, UniProt P21397); type: functional
T4 sequence (P21397 whole entry): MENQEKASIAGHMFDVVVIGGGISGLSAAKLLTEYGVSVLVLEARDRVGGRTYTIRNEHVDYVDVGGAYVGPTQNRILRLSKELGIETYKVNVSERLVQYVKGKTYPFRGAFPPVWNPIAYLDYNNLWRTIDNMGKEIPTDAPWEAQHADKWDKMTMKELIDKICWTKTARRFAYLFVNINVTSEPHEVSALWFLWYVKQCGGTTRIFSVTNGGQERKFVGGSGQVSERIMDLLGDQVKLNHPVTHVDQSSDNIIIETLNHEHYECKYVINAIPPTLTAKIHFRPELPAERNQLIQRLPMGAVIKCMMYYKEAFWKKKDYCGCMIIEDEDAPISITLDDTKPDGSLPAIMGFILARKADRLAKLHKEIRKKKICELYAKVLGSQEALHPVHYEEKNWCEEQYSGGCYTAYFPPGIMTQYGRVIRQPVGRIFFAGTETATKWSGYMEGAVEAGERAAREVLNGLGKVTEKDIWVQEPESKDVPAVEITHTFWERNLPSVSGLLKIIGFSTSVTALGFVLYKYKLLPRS

[8] = target: Kappa-type opioid receptor (Homo sapiens, UniProt P41145)
Chain of Kappa-type opioid receptor (P41145 whole entry): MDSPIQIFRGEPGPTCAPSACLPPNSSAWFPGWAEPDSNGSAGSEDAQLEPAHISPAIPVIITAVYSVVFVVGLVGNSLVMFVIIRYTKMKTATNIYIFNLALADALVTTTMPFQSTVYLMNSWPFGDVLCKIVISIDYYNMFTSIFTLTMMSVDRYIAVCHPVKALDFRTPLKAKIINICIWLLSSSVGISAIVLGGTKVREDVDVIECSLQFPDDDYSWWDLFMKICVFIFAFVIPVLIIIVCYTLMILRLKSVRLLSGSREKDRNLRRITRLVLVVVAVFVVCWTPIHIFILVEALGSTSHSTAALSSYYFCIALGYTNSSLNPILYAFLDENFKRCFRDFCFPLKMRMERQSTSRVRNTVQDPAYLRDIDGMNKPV

[9] = target: T5, 5-hydroxytryptamine receptor 1A (Homo sapiens, UniProt P08908); type: functional, cell-based
T5 sequence (P08908 whole entry): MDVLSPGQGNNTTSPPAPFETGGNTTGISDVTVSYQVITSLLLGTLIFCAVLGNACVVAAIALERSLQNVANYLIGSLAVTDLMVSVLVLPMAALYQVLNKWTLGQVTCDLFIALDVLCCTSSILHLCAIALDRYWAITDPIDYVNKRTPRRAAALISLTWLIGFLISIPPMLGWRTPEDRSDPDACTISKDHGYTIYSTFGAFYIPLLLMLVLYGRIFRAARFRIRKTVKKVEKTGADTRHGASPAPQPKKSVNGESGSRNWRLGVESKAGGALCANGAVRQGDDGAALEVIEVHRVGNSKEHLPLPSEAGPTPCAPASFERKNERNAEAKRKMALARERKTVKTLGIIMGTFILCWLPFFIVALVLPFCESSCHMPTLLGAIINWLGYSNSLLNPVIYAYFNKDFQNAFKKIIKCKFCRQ

[10] = target: Gamma-aminobutyric acid receptor subunit alpha-1 (Rattus norvegicus, UniProt P62813)
Chain of Gamma-aminobutyric acid receptor subunit alpha-1 (P62813 whole entry): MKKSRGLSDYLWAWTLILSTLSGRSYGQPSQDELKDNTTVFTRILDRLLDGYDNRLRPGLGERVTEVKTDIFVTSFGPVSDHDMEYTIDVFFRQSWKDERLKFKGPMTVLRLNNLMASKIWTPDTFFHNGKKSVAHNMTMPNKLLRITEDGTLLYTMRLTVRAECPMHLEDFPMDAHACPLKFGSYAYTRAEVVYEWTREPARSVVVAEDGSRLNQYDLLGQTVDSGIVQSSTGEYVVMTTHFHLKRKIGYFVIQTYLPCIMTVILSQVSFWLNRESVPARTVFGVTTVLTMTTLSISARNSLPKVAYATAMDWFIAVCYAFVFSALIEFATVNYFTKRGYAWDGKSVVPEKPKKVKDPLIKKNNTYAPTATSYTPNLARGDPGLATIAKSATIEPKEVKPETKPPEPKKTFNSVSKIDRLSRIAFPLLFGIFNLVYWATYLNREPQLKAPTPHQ

[11] = target: Beta-2 adrenergic receptor (Homo sapiens, UniProt P07550)
Chain of Beta-2 adrenergic receptor (P07550 whole entry): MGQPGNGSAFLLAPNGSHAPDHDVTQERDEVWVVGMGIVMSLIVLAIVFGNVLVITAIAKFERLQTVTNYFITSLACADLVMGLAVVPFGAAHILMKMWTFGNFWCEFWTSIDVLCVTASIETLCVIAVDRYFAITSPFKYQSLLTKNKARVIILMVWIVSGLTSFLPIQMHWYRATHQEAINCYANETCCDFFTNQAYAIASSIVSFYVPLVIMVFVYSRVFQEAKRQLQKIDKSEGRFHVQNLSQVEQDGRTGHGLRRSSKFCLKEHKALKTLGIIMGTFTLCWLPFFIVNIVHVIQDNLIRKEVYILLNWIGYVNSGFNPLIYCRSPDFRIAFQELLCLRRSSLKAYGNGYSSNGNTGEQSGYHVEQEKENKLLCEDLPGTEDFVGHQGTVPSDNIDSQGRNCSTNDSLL
Note: assay procedure not described here.

Chain of D(3) dopamine receptor (P35462 whole entry): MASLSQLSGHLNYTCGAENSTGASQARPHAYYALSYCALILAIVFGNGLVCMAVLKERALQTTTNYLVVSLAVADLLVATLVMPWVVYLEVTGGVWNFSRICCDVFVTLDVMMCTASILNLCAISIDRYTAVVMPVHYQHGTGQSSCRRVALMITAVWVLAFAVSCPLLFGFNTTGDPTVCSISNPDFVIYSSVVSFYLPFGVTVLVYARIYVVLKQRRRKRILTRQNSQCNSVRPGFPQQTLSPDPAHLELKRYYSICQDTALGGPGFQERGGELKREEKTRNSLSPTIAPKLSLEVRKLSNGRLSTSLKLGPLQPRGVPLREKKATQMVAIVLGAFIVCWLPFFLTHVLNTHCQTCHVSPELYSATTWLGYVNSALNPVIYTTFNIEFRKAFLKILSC
Chain of Delta-type opioid receptor (P41143 whole entry): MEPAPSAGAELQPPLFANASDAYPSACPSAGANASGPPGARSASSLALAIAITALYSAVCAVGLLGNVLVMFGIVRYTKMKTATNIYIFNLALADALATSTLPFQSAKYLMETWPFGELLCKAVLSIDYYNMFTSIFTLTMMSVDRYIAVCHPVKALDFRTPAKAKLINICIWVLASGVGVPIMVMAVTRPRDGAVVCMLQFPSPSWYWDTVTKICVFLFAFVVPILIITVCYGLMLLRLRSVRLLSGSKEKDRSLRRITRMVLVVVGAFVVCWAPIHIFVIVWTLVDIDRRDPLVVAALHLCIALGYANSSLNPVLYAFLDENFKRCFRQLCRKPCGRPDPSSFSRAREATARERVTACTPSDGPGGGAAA

SMILES | AC50 [1] [µM] | AC50 [2] [µM] | AC50 [3] [µM] | AC50 [4] [µM] | AC50 [5] [µM] | AC50 [6] [µM] | AC50 [7] [µM] | AC50 [8] [µM] | AC50 [9] [µM] | AC50 [10] [µM] | AC50 [11] [µM]
CCCCCCOC(=O)NC(=N)c1ccc(NCc2nc3cc(C(=O)N(CCC(=O)OCC)c4ccccn4)ccc3n2C)cc1 [DABIGATRAN ETEXILATE] | > 30 | > 30 | > 30 | > 30 | > 30 | > 30 | > 30 | > 30 | – | – | –
CCC1(CC)C(=O)NC(=O)N(C)C1=O [METHARBITAL] | > 30 | > 30 | > 10 | > 10 | – | > 30 | > 10 | > 10 | > 10 | > 10 | > 10
COC(=O)[C@H]1[C@H]2C[C@@H]3c4[nH]c5ccccc5c4CCN3C[C@H]2C[C@@H](OC(=O)c2cc(OC)c(OC)c(OC)c2)[C@@H]1OC [DESERPIDINE] | > 30 | > 30 | > 30 | 12 | – | 8.3 | > 10 | 13.7 | > 10 | > 10 | > 10
CC(=O)N1CCN(c2ccc(OCC3COC(Cn4ccnc4)(c4ccc(Cl)cc4Cl)O3)cc2)CC1 (stereo unspecified) [KETOCONAZOLE] | > 10 | > 30 | > 10 | > 10 | – | > 30 | > 10 | > 10 | – | > 10 | > 10
CC(=O)[C@@]1(O)CC[C@H]2[C@@H]3C[C@H](C)C4=CC(=O)C=C[C@]4(C)[C@@]3(F)[C@@H](O)C[C@@]21C [FLUOROMETHOLONE] | > 30 | > 30 | > 10 | > 10 | > 30 | > 30 | > 10 | > 10 | – | > 10 | > 10
CC1CC(OC(=O)C(O)c2ccccc2)CC(C)(C)C1 (stereo unspecified) [CYCLANDELATE] | > 30 | > 30 | > 10 | > 10 | – | > 30 | > 10 | > 10 | > 10 | > 10 | > 10
OCC(O)COc1ccc(Cl)cc1 (stereo unspecified) | > 30 | > 30 | > 10 | > 10 | – | > 30 | > 10 | > 10 | > 10 | > 10 | > 10
O=C(O[C@H]1C[N+]2(CCCOc3ccccc3)CCC1CC2)C(O)(c1cccs1)c1cccs1 [ACLIDINIUM BROMIDE] | > 30 | > 10 | > 30 | 2.5 | – | > 30 | > 10 | 13.9 | – | > 10 | > 10
CN(Cc1ccc(C(C)(C)C)cc1)Cc1cccc2ccccc12 [BUTENAFINE] | > 30 | > 30 | > 10 | > 10 | – | > 30 | > 10 | > 10 | > 10 | > 10 | > 10

Source: ChEMBL document CHEMBL5291721, “A preclinical secondary pharmacology resource illuminates target-adverse drug reaction associations of marketed drugs” (Nat Commun, 2023)
